Measured values taken from US5849760A, “2-(arylalkenyl)azacycloalkane derivatives as ligands for sigma receptors” (Institut de Recherche Jouveinal, priority 1993, dated 1998).
Structures can show the parent of a compound that is named as a salt.

Columns and labels:
sigma receptors = target: T1, sigma receptors (Rattus norvegicus, UniProt Q9R0C9); assay: In vitro binding to sigma receptors with (+)[^3 H]SKF10.047; details: for IC50: rat brain membrane, (+)[^3 H]SKF10.047; for IC50, haloperidol / IC50, example: ratio to haloperidol, second series, rat brain membranes, [^3 H]SKF10.047
T1 construct: a preparation of rat brain membrane; from tissue; host or cells: rat brain membranes
T1 sequence (Q9R0C9 whole entry): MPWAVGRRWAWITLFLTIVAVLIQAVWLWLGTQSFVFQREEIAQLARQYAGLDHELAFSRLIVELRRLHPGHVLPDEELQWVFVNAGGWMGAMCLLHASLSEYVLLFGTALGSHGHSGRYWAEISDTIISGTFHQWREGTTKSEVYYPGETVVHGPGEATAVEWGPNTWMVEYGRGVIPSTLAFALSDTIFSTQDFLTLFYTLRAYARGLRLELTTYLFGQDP
Protocol: Experiments on binding to sigma and PCP receptors are performed with the ligands (+)[^3 H]SKF10.047 and [^3 H]TCP, respectively, by the technique described by Largent, B. L., et al. in J. Pharmacol. Exp. Ther., 1986, Vol. 238, pp. 739-748. The principle of this technique is to place in competition the affinity of the test substance and that of a radioactive ligand specific for the receptor being studied.
The results are expressed as the IC50 of the test substance, which is the concentration at which the tritiated ligand is displaced from 50% of its binding sites in the membrane preparation used.

PCP receptors = assay: In vitro binding to PCP receptors with [^3 H]TCP; details: rat brain membrane
Protocol: The test of binding to phenylcyclidine receptors (PCP receptors), performed in the presence of a ligand specific for PCP receptors, [^3 H]TCP, was used to investigate any undesirable interaction of the compounds of the invention with these receptors.
The principle of this technique is to place in competition the affinity of the test substance and that of a radioactive ligand specific for the receptor being studied.
The technique consists in incubating a preparation of rat brain membrane loaded with the labeled ligand specific for the receptor under study in solutions of varying concentration of the test substance. After filtration, one measures the radioactivity of the solution, which represents the displacement of this labeled ligand by the test substance.

[1] = system: cysteamine-induced gastroduodenal ulcers; assay: Cysteamine-induced gastroduodenal ulcer; assay type: in vivo, male Sprague-Dawley rats; details: I.P. route, 30 min before ulcerogenic agent, dose inhibiting 50% of ulcers; for ED50: Rattus norvegicus, ip, 18 h
Protocol: The activity of the compounds of the invention with respect to the gastrointestinal tract was shown in the rat by their ability to inhibit gastroduodenal ulcers induced by the administration of cysteamine. In terms of practical methodology, the study is performed according to the method described by Robert, A., et al., in Digestion, 1974, Vol. 11, pp. 199-214, in groups of male Sprague-Dawley rats with an average weight of 200 g, to which a cysteamine hydrochloride solution is administered by subcutaneous injection in a dose of 400 mg/kg. The test compounds are administered to the animals 1 h or 30 min, respectively, before the ulcerogenic agent, depending on whether the oral or intraperitoneal route is used. Eighteen hours later, the rats are sacrificed by elongation; the stomach and duodenum are removed, rinsed with physiological salt solution, and pinned to a card. The antropyloroduodenal region is examined for ulcers, and the area of the ulcers, expressed in mm^2, is determined by multiplying the two main perpendicular axes of the lesion. Statistical analysis of the results is performed by means of Student's t-test for the ulcerated areas in comparison with a control group. The results obtained after intraperitoneal administration are presented in Table 3 and are expressed as the ED50, which is the effective dose (mg/kg) of compound inhibiting 50% of the cysteamine-induced ulcers. Igmesine is presented by way of comparison.

SMILES	ED50 [1] [mg/kg]	IC50, haloperidol / IC50, example (sigma receptors)	further results
C(=C\c1ccccc1)/CC1CCCN1CC1CC1 (racemic) [Example 1.1, (±)-(E)-2-cinnamyl-1-cyclopropylmethylpyrrolidine]	0.185		IC50 (sigma receptors): 34.2 nM; IC50 (PCP receptors): > 10000 nM
C(=C\c1ccccc1)/CC1CCCN1CC1CC1 (single isomer, unassigned; (+)) [Example 1.2, (+)-(E)-2-cinnamyl-1-cyclopropylmethylpyrrolidine]	< 0.1		
C(=C\c1ccccc1)/CC1CCCCN1CC1CC1 (single isomer, unassigned; (+)) [Example 2A.2, (+)-(E)-2-cinnamyl-1-(cyclopropylmethyl)piperidine]	< 0.1		
CCC(C/C=C/c1ccccc1)(c1ccccc1)N(C)CC1CC1 (single isomer, unassigned; (+)) [Igmesine, (+)-N-(cyclopropylmethyl)-1-ethyl-N-methyl-1,4-diphenyl-3-butene-1-ylaminehydrochloride, reference compound]	5.95		
C(=C\c1ccccc1)/CC1CCCN1CC1CC1 (single isomer, unassigned; (-)) [Example 1.3, (-)-(E)-2-cinnamyl-1-cyclopropylmethylpyrrolidine]		1.6	ED50, cysteamine-induced ulcer ([1]; 1080 min): < 0.100 mg/kg
C(=C\c1ccccc1)/CC1CCCCN1CC1CC1 (single isomer, unassigned; (-)) [Example 2A.3, (-)-(E)-2-cinnamyl-1-(cyclopropylmethyl)piperidine]		1.4	
C(=C\c1ccccc1)/CC1CCCN1CC1CCC1 (stereo not drawn) [Example 1.4, (E)-2-cinnamyl-1-cyclobutylmethylpyrrolidine]	0.137		affinity for sigma receptors (sigma receptors; in words): strong affinity for sigma receptors; IC50 (sigma receptors): 4.52 nM; IC50 (PCP receptors): > 10000 nM
C(=C\c1ccccc1)/CC1CCCN1CCc1ccccc1 (stereo not drawn) [Example 1.6, (E)-2-cinnamyl-1-phenethylpyrrolidine]		1.3	
C(=C\c1ccccc1)/CC1CCCCN1CC1CC1 (stereo not drawn) [Example 2A.1, (E)-2-cinnamyl-1-cyclopropylmethylpiperidine]	0.1		
C(=C\c1ccccc1)/CC1CCCCN1CC1CCC1 (stereo not drawn) [Example 2A.4, (E) -2-cinnamyl-1-cyclobutylmethylpiperidine]		2.3	
C(=C\c1ccccc1)/CC1CCCCN1CCc1ccccc1 (stereo not drawn) [Example 2A.5, (E)-2-cinnamyl-1-(phenethyl)piperidine]		1.0	
C(=C/c1ccccc1)/CC1CCCCN1CC1CC1 (stereo not drawn) [Example 2A.6, (Z)-2-cinnamyl-1-cyclopropylmethylpiperidine]	< 0.1		IC50 (sigma receptors): 34.3 nM; IC50 (PCP receptors): > 10000 nM
Fc1ccc(/C=C\CC2CCCCN2CC2CC2)cc1 (stereo not drawn) [Example 2B.2, (Z)-2-(p-fluorocinnamyl)-1-cyclopropylmethylpiperidine]		1.6	
FC(F)(F)c1ccc(/C=C/CC2CCCCN2CC2CC2)cc1 (stereo not drawn) [Example 2G, (E)-2-(p-trifluoromethylcinnamyl)-1-cyclopropylmethylpiperidine]		0.8	
C(=C/c1ccccc1)/CC1CCCN1CC1CC1 (stereo not drawn) [Example 2K, (Z)-2-cinnamyl-1-cyclopropylmethylpyrrolidine]		4.3	
Fc1ccc(/C=C/CC2CCCN2CC2CC2)cc1 (stereo not drawn) [Example 2L, (E)-2-(p-fluorocinnamyl)-1-cyclopropylmethylpyrrolidine]		1.1	
